Source: patent US7601716B2, “Pyridopyrazines and derivatives thereof as ALK and c-Met inhibitors” (Cephalon, Inc., priority 2006, dated 2009)
pIC50: −log10 of the molar value. Structures can show the parent of a compound that is named as a salt.

How the values were obtained:
[1] = target: baculovirus-expressed ALK (Homo sapiens, UniProt Q9UM73); assay: ALK Kinase Assay (ELISA/TRF, PLC-γ substrate); type: biochemical; conditions: read-out: ALK Kinase Inhibition (IC50); further: 1 µM ATP (Km level)
Summary of the method: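 Substrate phosphorylation by 30 ng/ml ALK (37° C, 15 min) on PLC-γ-coated wells is quantified via time-resolved europium fluorescence from an anti-phosphotyrosine antibody. Percent inhibition against log10 compound concentration yields IC50 by nonlinear regression.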

[2] = target: T1, c-Met (cytoplasmic domain) (Homo sapiens, UniProt P08581); assay: c-Met Kinase Assay (ELISA/TRF, PLC-γ substrate); type: biochemical; conditions: 3 μM ATP (Km level); read-out: c-Met Kinase Inhibition (IC50)
T1 construct: Reactions were initiated with 30 ng/mL c-Met (cytoplasmic domain, Invitrogen Corporation #PV3143); purchased Invitrogen Corporation PV3143
Summary of the method: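 Readout is TRF of europium anti-phosphotyrosine (PT66) bound to GST–PLC-γ substrate coated at 10 μg/mL, after a 15 min, 37 °C reaction started with 30 ng/mL c-Met cytoplasmic domain. Percent inhibition plotted against log compound concentration and fitted (variable slope) for IC50.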

T1 sequence (P08581 956-1390 limits assumed): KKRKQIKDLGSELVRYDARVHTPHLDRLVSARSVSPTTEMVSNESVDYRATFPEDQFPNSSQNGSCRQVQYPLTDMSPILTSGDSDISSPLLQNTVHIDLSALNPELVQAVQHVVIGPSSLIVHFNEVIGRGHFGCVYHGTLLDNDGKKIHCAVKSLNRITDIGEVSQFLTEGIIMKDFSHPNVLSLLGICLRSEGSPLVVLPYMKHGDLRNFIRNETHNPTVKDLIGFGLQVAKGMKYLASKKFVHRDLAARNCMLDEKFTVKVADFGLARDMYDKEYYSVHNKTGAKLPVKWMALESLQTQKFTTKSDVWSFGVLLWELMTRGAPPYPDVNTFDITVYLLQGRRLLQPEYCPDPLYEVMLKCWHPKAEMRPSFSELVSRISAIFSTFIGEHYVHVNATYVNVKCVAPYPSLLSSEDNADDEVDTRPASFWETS
baculovirus-expressed ALK, sequence (Q9UM73 19-1620): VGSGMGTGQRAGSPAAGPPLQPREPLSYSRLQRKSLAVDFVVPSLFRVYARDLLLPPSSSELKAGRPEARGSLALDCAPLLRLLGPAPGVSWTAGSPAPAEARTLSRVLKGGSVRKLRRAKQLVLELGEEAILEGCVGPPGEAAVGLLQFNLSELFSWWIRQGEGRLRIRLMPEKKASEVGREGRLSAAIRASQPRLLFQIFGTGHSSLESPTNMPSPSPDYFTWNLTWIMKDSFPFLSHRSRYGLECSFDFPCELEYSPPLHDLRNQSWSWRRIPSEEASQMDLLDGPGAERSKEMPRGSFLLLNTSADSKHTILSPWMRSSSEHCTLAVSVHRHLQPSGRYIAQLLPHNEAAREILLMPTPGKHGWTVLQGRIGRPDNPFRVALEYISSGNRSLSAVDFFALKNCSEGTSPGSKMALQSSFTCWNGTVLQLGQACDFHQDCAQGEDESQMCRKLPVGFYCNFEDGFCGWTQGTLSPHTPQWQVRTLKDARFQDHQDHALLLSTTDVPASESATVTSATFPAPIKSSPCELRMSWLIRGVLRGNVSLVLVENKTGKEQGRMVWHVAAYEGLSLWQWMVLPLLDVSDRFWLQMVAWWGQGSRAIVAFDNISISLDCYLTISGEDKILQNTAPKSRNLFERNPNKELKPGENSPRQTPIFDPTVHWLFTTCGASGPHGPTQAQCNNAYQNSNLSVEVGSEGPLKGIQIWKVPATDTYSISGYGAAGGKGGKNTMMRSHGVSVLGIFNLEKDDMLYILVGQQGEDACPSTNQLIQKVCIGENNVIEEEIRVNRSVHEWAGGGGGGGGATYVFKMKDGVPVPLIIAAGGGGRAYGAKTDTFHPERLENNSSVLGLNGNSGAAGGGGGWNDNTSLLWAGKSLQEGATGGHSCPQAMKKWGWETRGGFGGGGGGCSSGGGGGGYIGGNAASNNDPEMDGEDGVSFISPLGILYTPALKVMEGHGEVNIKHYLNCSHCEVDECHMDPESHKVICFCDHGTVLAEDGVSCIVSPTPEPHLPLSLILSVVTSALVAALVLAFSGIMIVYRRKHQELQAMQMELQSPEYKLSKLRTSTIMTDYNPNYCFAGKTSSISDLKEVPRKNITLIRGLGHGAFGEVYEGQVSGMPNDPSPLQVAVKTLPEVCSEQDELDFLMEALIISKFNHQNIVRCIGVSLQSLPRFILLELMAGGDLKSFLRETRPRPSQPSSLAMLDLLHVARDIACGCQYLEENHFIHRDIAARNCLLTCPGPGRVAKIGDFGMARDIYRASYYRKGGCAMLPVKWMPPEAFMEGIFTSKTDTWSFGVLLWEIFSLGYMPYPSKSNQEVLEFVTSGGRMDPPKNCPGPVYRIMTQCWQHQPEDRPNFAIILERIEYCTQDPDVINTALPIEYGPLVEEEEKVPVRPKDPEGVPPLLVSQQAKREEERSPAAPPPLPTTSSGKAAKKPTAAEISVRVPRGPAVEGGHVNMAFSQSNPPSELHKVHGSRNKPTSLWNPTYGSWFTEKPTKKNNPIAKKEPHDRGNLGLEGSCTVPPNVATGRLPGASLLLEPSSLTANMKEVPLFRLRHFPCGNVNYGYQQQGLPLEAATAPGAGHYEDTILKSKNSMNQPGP

Row | Compound | pIC50 [1] | pIC50 [2] | melting point
1 | CN1CCN(c2ccc(-c3cnc4c(c3)C(O)CCN4)cn2)CC1 (stereo not shown) [Example 269, 6-[6-(4-Methyl-piperazin-1-yl)pyridin-3-yl]-1,2,3,4-tetrahydro-[1,8]naphthyridin-4-ol] | < 4.00 | 4.00 to 5.00 | 124 to 128 °C
2 | CC(=O)c1ccc(-c2cnc3c(c2)N(Cc2ccccc2)C(=O)CN3)cc1 [Example 21, 7-(4-Acetylphenyl)-1-benzyl-3,4-dihydro-1H-pyrido[2,3-b]pyrazin-2-one] | 4.00 to 5.00 | < 4.00 | 200 °C
3 | O=C(NCCN1CCCC1)c1ccc(-c2cnc3c(c2)N(Cc2ccccc2)C(=O)CN3)cc1 (as salt: trifluoroacetic acid salt) [Example 12, 4-(1-Benzyl-2-oxo-1,2,3,4-tetrahydropyrido[2,3-b]pyrazin-7-yl)-N-(2-pyrrolidin-1-yl-ethyl)benzamide, trifluoroacetic acid salt] | – | – | 107 °C
4 | O=C1CNc2ncc(I)cc2N1Cc1cc(F)c(F)cc1F [Example 81, 7-Iodo-1-(2,4,5-trifluorobenzyl)-3,4-dihydro-1H-pyrido[2,3-b]pyrazin-2-one] | < 4.00 | < 4.00 | 227 to 228 °C
5 | CN(C)CCCCCCNC(=O)c1ccc(-c2cnc3c(c2)N(Cc2c(Cl)cccc2Cl)C(=O)CN3)cc1 (as salt: trifluoroacetic acid salt) [Example 143, 4-[1-(2,6-Dichlorobenzyl)-2-oxo-1,2,3,4-tetrahydropyrido[2,3-b]pyrazin-7-yl]-N-(6-dimethylaminohexyl)benzamide, trifluoroacetic acid salt] | – | – | 150 °C
6 | O=C1CN(Cc2c(F)ccc(F)c2Cl)c2cc(Br)cnc2N1 [Example 436, 7-Bromo-1-(2-chloro-3,6-difluorobenzyl)-1,4-dihydro-2H-pyrido[2,3-b]pyrazin-3-one] | – | – | 214 to 216 °C (dec.)
7 | CN(C)CCCCNC(=O)c1ccc(-c2cnc3c(c2)N(Cc2c(Cl)cccc2Cl)C(=O)CN3)cc1 (as salt: trifluoroacetic acid salt) [Example 144, 4-[1-(2,6-Dichlorobenzyl)-2-oxo-1,2,3,4-tetrahydropyrido[2,3-b]pyrazin-7-yl]-N-(4-dimethylaminobutyl)benzamide, trifluoroacetic acid salt] | – | – | 147 °C
8 | CC(c1cc(F)ccc1F)N1C(=O)CNc2ncc(I)cc21 (stereo not shown) [Example 150, 1-[1-(2,5-Difluorophenyl)ethyl]-7-iodo-3,4-dihydro-1H-pyrido[2,3-b]pyrazin-2-one] | < 4.00 | < 4.00 | –
9 | O=C(c1ccc(-c2cnc3c(c2)N(Cc2cccnc2Cl)CCN3)cc1)N1CCC(N2CCCC2)CC1 [Example 303, {4-[1-(2-Chloropyridin-3-ylmethyl)-1,2,3,4-tetrahydropyrido[2,3-b]pyrazin-7-yl]phenyl}-(4-pyrrolidin-1-yl-piperidin-1-yl)methanone] | < 4.00 | < 4.00 | –
10 | COc1ccc(CN2CCN(C(=O)c3cnc4c(c3)N(Cc3cc(Cl)ccc3Cl)CCN4)CC2)cc1 [Example 218, [1-(2,5-Dichlorobenzyl)-1,2,3,4-tetrahydropyrido[2,3-b]pyrazin-7-yl]-[4-(4-methoxybenzyl)piperazin-1-yl]methanone] | 4.00 to 5.00 | 4.00 to 5.00 | –
11 | O=C(c1cnc2c(c1)N(Cc1cc(Cl)ccc1Cl)CCN2)N1CCN(c2ccccc2C(F)(F)F)CC1 [Example 257, [1-(2,5-Dichlorobenzyl)-1,2,3,4-tetrahydropyrido[2,3-b]pyrazin-7-yl]-[4-(2-(trifluoromethyl)phenyl)piperazin-1-yl]methanone] | 4.00 to 5.00 | < 4.00 | –
12 | O=C(c1cnc2c(c1)N(Cc1cc(Cl)ccc1Cl)CCN2)N1CCN(CCc2ccccc2)CC1 [Example 260, [1-(2,5-Dichlorobenzyl)-1,2,3,4-tetrahydropyrido[2,3-b]pyrazin-7-yl]-(4-phenethyl-piperazin-1-yl)methanone] | 5.00 to 6.00 | < 4.00 | –

More lines, now with the values ahead:

Row | pIC50 [1] | pIC50 [2] | melting point | Compound
13 | 6.00 to 7.00 | 5.00 to 6.00 | 156 °C | Cn1cc(-c2cnc3c(c2)N(Cc2cc(Cl)ccc2C(F)(F)F)CCN3)cn1 [Example 203, 1-[5-Chloro-2-(trifluoromethyl)benzyl]-7-(1-methyl-1H-pyrazol-4-yl)-1,2,3,4-tetrahydropyrido[2,3-b]pyrazine]
14 | 5.00 to 6.00 | < 4.00 | 244 °C | CC(=O)Nc1ccc(-c2cnc3c(c2)N(Cc2cc(Cl)ccc2C(F)(F)F)CCN3)cc1 [Example 304, N-(4-{1-[5-Chloro-2-(trifluoromethyl)benzyl]-1,2,3,4-tetrahydropyrido[2,3-b]pyrazin-7-yl}phenyl)acetamide]
15 | 6.00 to 7.00 | 4.00 to 5.00 | 169 to 172 °C | CCOC(=O)c1cncc(-c2cnc3c(c2)N(Cc2cc(F)ccc2F)CCN3)c1 [Example 73, 5-[1-(2,5-Difluorobenzyl)-1,2,3,4-tetrahydropyrido[2,3-b]pyrazin-7-yl]-nicotinic acid ethyl ester]
16 | > 7.00 | 6.00 to 7.00 | 188 to 190 °C | N#Cc1c(F)ccc(F)c1CN1CCNc2ncc(-c3ccc(N4CCOCC4)nc3)cc21 [Example 289, 3,6-Difluoro-2-[7-(6-morpholin-4-yl-pyridin-3-yl)-3,4-dihydro-2H-pyrido[2,3-b]pyrazin-1-ylmethyl]benzonitrile]
17 | 6.00 to 7.00 | < 4.00 | 200 °C (dec.) | N#Cc1ccc(-c2cnc3c(c2)N(Cc2cc(F)ccc2F)CCN3)cn1 [Example 71, 5-[1-(2,5-Difluorobenzyl)-1,2,3,4-tetrahydropyrido[2,3-b]pyrazin-7-yl]-pyridine-2-carbonitrile]
18 | 5.00 to 6.00 | < 4.00 | 178 to 179 °C | CCOC(=O)c1ccc(-c2cnc3c(c2)N(Cc2ccccc2)CCN3)cc1 [Example 35, 4-(1-Benzyl-1,2,3,4-tetrahydropyrido[2,3-b]pyrazin-7-yl)benzoic acid ethyl ester]
19 | 6.00 to 7.00 | 4.00 to 5.00 | 206 to 207 °C | Fc1ccc(F)c(CN2CCNc3ncc(-c4ccc(N5CCOCC5)nc4)cc32)c1 [Example 70, 1-(2,5-Difluorobenzyl)-7-(6-morpholin-4-yl-pyridin-3-yl)-1,2,3,4-tetrahydropyrido[2,3-b]pyrazine]
20 | 5.00 to 6.00 | 4.00 to 5.00 | – | CC(C)NC(=O)CN1CCN(C(=O)c2cnc3c(c2)N(Cc2cc(Cl)ccc2Cl)CCN3)CC1 [Example 236, 2-{4-[1-(2,5-Dichlorobenzyl)-1,2,3,4-tetrahydropyrido[2,3-b]pyrazine-7-carbonyl]piperazin-1-yl}-N-isopropylacetamide]
21 | 6.00 to 7.00 | < 4.00 | – | O=C(c1cnc2c(c1)N(Cc1cc(Cl)ccc1Cl)CCN2)N1CCN(c2cnccn2)CC1 [Example 241, [1-(2,5-Dichlorobenzyl)-1,2,3,4-tetrahydropyrido[2,3-b]pyrazin-7-yl]-(2,3,5,6-tetrahydro-[1,2′]bipyrazinyl-4-yl)methanone]
22 | 5.00 to 6.00 | < 4.00 | – | O=C(c1cnc2c(c1)N(Cc1cc(Cl)ccc1Cl)CCN2)N1CCC[C@H]1CN1CCCC1 [Example 238, [1-(2,5-Dichlorobenzyl)-1,2,3,4-tetrahydropyrido[2,3-b]pyrazin-7-yl]-((S)-2-pyrrolidin-1-ylmethyl-pyrrolidin-1-yl)methanone]
23 | 5.00 to 6.00 | < 4.00 | – | O=C(NCc1csc(-c2ccccc2)n1)c1cnc2c(c1)N(Cc1cc(Cl)ccc1Cl)CCN2 [Example 242, 1-(2,5-Dichlorobenzyl)-1,2,3,4-tetrahydropyrido[2,3-b]pyrazine-7-carboxylic acid (2-phenylthiazol-4-yl-methyl)amide]
24 | 5.00 to 6.00 | 4.00 to 5.00 | – | Clc1cccc(Cl)c1CN1CCNc2ncc(-c3cccnc3)cc21 [Example 138, 1-(2,6-Dichlorobenzyl)-7-pyridin-3-yl-1,2,3,4-tetrahydropyrido[2,3-b]pyrazine, trifluoroacetic acid salt]
25 | 6.00 to 7.00 | 4.00 to 5.00 | – | CCOC(=O)c1ccc(-c2cnc3c(c2)N(Cc2ccccc2)C(=O)CN3)cn1 [Example 29, 5-(1-Benzyl-2-oxo-1,2,3,4-tetrahydropyrido[2,3-b]pyrazin-7-yl)pyridine-2-carboxylic acid ethyl ester]
26 | 5.00 to 6.00 | 4.00 to 5.00 | – | O=C1CNc2ncc(-c3cccnc3)cc2N1Cc1c(F)ccc(F)c1Cl [Example 4, 1-(2-Chloro-3,6-difluorobenzyl)-7-pyridin-3-yl-3,4-dihydro-1H-pyrido[2,3-b]pyrazin-2-one, trifluoroacetic acid salt]
27 | 5.00 to 6.00 | 4.00 to 5.00 | – | CN(C)CCCCNC(=O)c1ccc(-c2cnc3c(c2)N(Cc2ccccc2)C(=O)CN3)cc1 [Example 15, 4-(1-Benzyl-2-oxo-1,2,3,4-tetrahydropyrido[2,3-b]pyrazin-7-yl)-N-(4-dimethylaminobutyl)benzamide, trifluoroacetic acid salt]
28 | 6.00 to 7.00 | 5.00 to 6.00 | – | O=C(c1ccc(-c2cnc3c(c2)N(Cc2cc(F)ccc2F)CCN3)cc1)N1CCOCC1 [Example 68, {4-[1-(2,5-Difluorobenzyl)-1,2,3,4-tetrahydropyrido[2,3-b]pyrazin-7-yl]phenyl}-morpholin-4-yl-methanone]
29 | 6.00 to 7.00 | 5.00 to 6.00 | – | Fc1ccc(F)c(CN2CCNc3ncc(-c4ccnc(N5CCOCC5)c4Cl)cc32)c1Cl [Example 101, 1-(2-Chloro-3,6-difluorobenzyl)-7-(3-chloro-2-morpholin-4-yl-pyridin-4-yl)-1,2,3,4-tetrahydropyrido[2,3-b]pyrazine]
